In patent US4383113A, “Agricultural sulfonamides” (E. I. Du Pont de Nemours and Company, priority 1981, dated 1983) one finds response rating data, which are given here for 14 compounds.

Parameters in all cases: key: 0 = no effect, 10 = maximum effect; letter = response symbol
One assay concerns bush bean. In words: Test A post-emergence. In kind it is in vivo, bush beans. Conditions: 0.4 kg/ha.
For assay [1], the system named is morningglory. Description: Test A post-emergence. Conditions: 0.4 kg/ha. In kind it is in vivo, Ipomoea spp. The method in brief: (§1)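 Seeds and tubers were treated preemergence in a growth medium with compound in a nonphytotoxic solvent, against untreated controls; emerged plants such as two-leaf barnyardgrass and five-leaf cotton were sprayed postemergence, against solvent-sprayed controls. After sixteen days in a greenhouse, response was rated visually from 0 to 10.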

The test system of assay [2] is cocklebur. In words: Test A post-emergence. The assay is classed as in vivo, Xanthium spp. The settings on record: 0.4 kg/ha. The method in brief:
as §1

Assay [3] has as its system cassia. Description: Test A post-emergence. The settings on record: 0.4 kg/ha. In kind it is in vivo, Cassia tora. The method in brief: as §1
The test system of assay [4] is corn. Description: Test A post-emergence. The assay is classed as in vivo. The settings on record: 0.4 kg/ha. The method in brief:
as §1

The test system of the next assay is cotton. In words: Test A post-emergence. The assay is classed as in vivo. Conditions: 0.4 kg/ha. The method in brief:
as §1

Another assay deals with nutsedge. Description: Test A post-emergence. In kind it is in vivo, Cyperus rotundus. Conditions: 0.4 kg/ha. An outline of the steps: as §1
The test system of assay [5] is wheat. In words: Test A post-emergence. The assay is classed as in vivo. The settings on record: 0.4 kg/ha. An outline of the steps: as §1
Assay [6] deals with wild oats. In words: Test A post-emergence. In kind it is in vivo, Avena fatua. Conditions: 0.4 kg/ha. The method in brief: as §1
Assay [7] relates to morningglory. In words: Test A pre-emergence. The assay is classed as in vivo, Ipomoea spp. An outline of the steps:
as §1

Assay [8] concerns cocklebur. In words: Test A pre-emergence. In kind it is in vivo, Xanthium spp. The method in brief: as §1
Assay [9] concerns cassia. In words: Test A pre-emergence. The assay is classed as in vivo, Cassia tora. An outline of the steps:
as §1

The test system of the next assay is crabgrass. In words: Test A pre-emergence. The assay is classed as in vivo, Digitaria spp. An excerpt: (§2) The activity of these compounds was discovered in a number of greenhouse and field tests. The ratings are based on a numerical scale extending from 0=no effect, to 10=maximum effect. The accompanying descriptive symbols have the following meanings:
(§3) Seeds of crabgrass (Digitaria spp.), barnyardgrass (Echinochloa crusgalli), wild oats (Avena fatua), cassia (Cassia tora), morningglory (Ipomoea spp.), cocklebur (Xanthium spp.), sorghum, corn, soybean, rice, wheat and nutsedge tubers (Cyperus rotundus) were planted in a growth medium and treated preemergence with a nonphytotoxic solvent solution of the compounds of Table XII. Other batches of seeds and tubers for all of the foregoing weed and crop plants were planted at the same time as controls. The control plantings were untreated; i.e., neither any compound nor any solvent was applied. At the same time, cotton having five leaves (including cotyledonary ones), bush beans with the third trifoliate leaf expanding, crabgrass with two leaves, barnyardgrass with two leaves, wild oats with two leaves, cassia with three leaves (including cotyledonary ones), morningglory with four leaves (including the cotyledonary ones), cocklebur with four leaves (including the cotyledonary ones), sorghum with four leaves, corn with four leaves, soybean with two cotyledonary leaves, rice with three leaves, wheat with one leaf, and nutsedge with three-five leaves were sprayed with a nonphytotoxic solvent solution of the compounds of Table XII. Other groups of all the same weed and crop plants were sprayed with the same nonphytotoxic solvent so as to provide control plants. Preemergence and postemergence treated plants and controls were maintained in a greenhouse for sixteen days, then all treated plants were compared with their respective controls and rated visually for response to treatment.

The subject of another assay is barnyardgrass. In words: Test A pre-emergence. In kind it is in vivo, Echinochloa crusgalli. An outline of the steps:
as §1

The subject of assay [10] is wild oats. Description: Test A pre-emergence. In kind it is in vivo, Avena fatua.
Description: as §2, §3

The test system of assay [11] is corn. Description: Test A pre-emergence. The assay is classed as in vivo. An outline of the steps: as §1
In another assay the test system is sorghum. In words: Test A pre-emergence. In kind it is in vivo. The method in brief: as §1
Another assay relates to soybean. Description: Test A pre-emergence. In kind it is in vivo. The method in brief:
as §1

In assay [12] the test system is wheat. Description: Test A pre-emergence. In kind it is in vivo. An outline of the steps:
as §1

For the compound `COc1nc(C)nc(NC(=O)NS(=O)(=O)c2ccccc2C(=O)OC2CCCCC2C)n1` (stereo not drawn), the response rating in the assay with bush bean is recorded as 9C; in the assay with morningglory [1] it was 10C; in the assay on cocklebur [2] it was 9C; with cassia [3], 9C; with corn [4], 10C; in the assay with cotton, 9C.
Turning to `COc1nc(C)nc(NC(=O)NS(=O)(=O)c2ccccc2C(=O)OC(C)C)n1` [drawing 425], the response rating is given as 9C in the assay on bush bean; 10C with morningglory [1]; 10C in the assay with cocklebur [2]; 10C in the assay on cassia [3]; 10C in the assay with nutsedge; 10C in the assay with corn [4]. In addition, the results for the response rating in the assay on cotton and with wheat [5] were 9C and 2C, respectively.
For the compound `COc1nc(C)nc(NC(=O)NS(=O)(=O)c2ccccc2C(=O)OCCCl)n1` [drawing 426], the response rating was found to be 9C in the assay with bush bean; 10C in the assay on morningglory [1]; 10C in the assay on cocklebur [2]; 9C in the assay on cassia [3]; 9C in the assay on nutsedge; 4G in the assay on wild oats [6]. Besides, the response rating in the assay with corn [4] was found to be 9C; in the assay with cotton, 9C; in the assay with wheat [5], 1C.
For `COC(=O)c1cc(Cl)ccc1S(=O)(=O)NC(=O)Nc1nc(OC)cc(OC)n1` [drawing 433], the response rating in the assay on bush bean is 9C; in the assay with morningglory [1], 10C; with cocklebur [2], 10C; in the assay on cassia [3], 9C; in the assay on nutsedge, 10C; in the assay with wild oats [6] it was 9G. The results for the response rating in the assay on corn [4] and in the assay with cotton were 6H and 9C, respectively.
`COC(=O)c1ccccc1S(=O)(=O)NC(=O)Nc1nc(C)cc(OC)n1` [drawing 480]: the response rating in the assay with morningglory [7] (0.4 kg/ha) was found to be 9G; with cocklebur [8] (0.4 kg/ha) it was 9G; in the assay with cassia [9] (0.4 kg/ha), 9G; in the assay on crabgrass (0.4 kg/ha) it was 9H; with barnyardgrass (0.4 kg/ha), 9H; in the assay on wild oats [10] (0.4 kg/ha), 9H. For the same compound, the response rating in the assay on corn [11] (0.4 kg/ha) is reported as 10H; with sorghum (0.4 kg/ha), 9H; in the assay on soybean (0.4 kg/ha), 9H; with wheat [12] (0.4 kg/ha) it was 9H.
`COC(=O)c1ccccc1S(=O)(=O)NC(=O)Nc1nc(OC)cc(OC)n1` [drawing 481]: the response rating is 9G with morningglory [7] (0.4 kg/ha); 9G in the assay on cocklebur [8] (0.4 kg/ha); 9G in the assay with cassia [9] (0.4 kg/ha); 9H in the assay on crabgrass (0.4 kg/ha); 9H with barnyardgrass (0.4 kg/ha); 9H in the assay on wild oats [10] (0.4 kg/ha). Also, the response rating in the assay with corn [11] (0.4 kg/ha), in the assay with sorghum (0.4 kg/ha) and in the assay with wheat [12] (0.4 kg/ha) was 9H in each case.
With `COC(=O)c1ccccc1S(=O)(=O)NC(=O)Nc1nnc(C)c(C)n1` [drawing 484], the response rating in the assay on morningglory [7] (2 kg/ha) is 9C; in the assay with cocklebur [8] (2 kg/ha) it was 9G; in the assay on cassia [9] (2 kg/ha), 9C; in the assay with barnyardgrass (2 kg/ha), 9H; in the assay on wild oats [10] (2 kg/ha), 9H; with corn [11] (2 kg/ha), 9G. The response rating with sorghum (2 kg/ha), in the assay on soybean (2 kg/ha) and in the assay on wheat [12] (2 kg/ha) was 9H in each case.
For the compound `COC(=O)c1ccccc1S(=O)(=O)NC(=O)Nc1ncccn1` [drawing 485], the response rating in the assay with cocklebur [8] (2 kg/ha) is 9G; with cassia [9] (2 kg/ha), 9G; in the assay with wild oats [10] (2 kg/ha) it was 8G; in the assay with corn [11] (2 kg/ha), 9G; in the assay on sorghum (2 kg/ha) it was 9G; in the assay on wheat [12] (2 kg/ha), 8G.
Regarding `COc1nc(C)nc(NC(=O)NS(=O)(=O)c2ccccc2C(=O)OC(C)C)n1` [drawing 492], the response rating with morningglory [7] (0.4 kg/ha) came out at 9G; in the assay with cocklebur [8] (0.4 kg/ha) it was 9G; with wild oats [10] (0.4 kg/ha) it was 9G; in the assay with corn [11] (0.4 kg/ha), 9G; in the assay on soybean (0.4 kg/ha), 9H; with wheat [12] (0.4 kg/ha) it was 5G.
Turning to `COC(=O)c1cc(Cl)ccc1S(=O)(=O)NC(=O)Nc1nc(OC)cc(OC)n1` [drawing 500], the response rating in the assay on morningglory [7] (0.4 kg/ha) came to 9G; in the assay with cocklebur [8] (0.4 kg/ha) it was 9G; in the assay with crabgrass (0.4 kg/ha), 5G; in the assay with barnyardgrass (0.4 kg/ha) it was 9H; with wild oats [10] (0.4 kg/ha), 9G; in the assay on corn [11] (0.4 kg/ha), 9H. For the same compound, the values for the response rating in the assay on sorghum (0.4 kg/ha), in the assay with soybean (0.4 kg/ha) and with wheat [12] (0.4 kg/ha) were 9H, 9H and 3G, respectively.
Regarding `CCCCOC(=O)c1ccccc1S(=O)(=O)NC(=O)Nc1nc(OC)cc(OC)n1` [drawing 506], the response rating in the assay on morningglory [7] (0.4 kg/ha) was 9G; with cocklebur [8] (0.4 kg/ha), 9G; in the assay with cocklebur [8] (2 kg/ha), 9G; in the assay with cassia [9] (0.4 kg/ha), 9G; in the assay with cassia [9] (2 kg/ha), 9C; in the assay on crabgrass (0.4 kg/ha), 8G. For the same compound, the response rating is 7G with crabgrass (2 kg/ha); 9H in the assay with barnyardgrass (0.4 kg/ha); 9H in the assay with barnyardgrass (2 kg/ha); 7G in the assay with wild oats [10] (0.4 kg/ha); 8G with wild oats [10] (2 kg/ha); 9G in the assay with corn [11] (2 kg/ha). Also, the response rating in the assay on sorghum (2 kg/ha) is 9H; in the assay on soybean (0.4 kg/ha), 7H; in the assay with soybean (2 kg/ha), 9H; with wheat [12] (0.4 kg/ha), 9G; in the assay with wheat [12] (2 kg/ha) it was 9G.
As to `CCCCOC(=O)c1ccccc1S(=O)(=O)NC(=O)Nc1nc(C)cc(OC)n1` [drawing 507], the response rating amounted to 9G in the assay with morningglory [7] (0.4 kg/ha); 9G with cocklebur [8] (0.4 kg/ha); 9G in the assay with cocklebur [8] (2 kg/ha); 9G in the assay with cassia [9] (0.4 kg/ha); 7G with crabgrass (0.4 kg/ha); 9H with barnyardgrass (0.4 kg/ha). Besides, the response rating was 9H in the assay with barnyardgrass (2 kg/ha); 9G in the assay with corn [11] (0.4 kg/ha); 9G with corn [11] (2 kg/ha); 9H in the assay on sorghum (0.4 kg/ha); 9H in the assay on sorghum (2 kg/ha); 9H in the assay on soybean (0.4 kg/ha). For the same compound, the response rating in the assay on soybean (2 kg/ha), in the assay on wheat [12] (0.4 kg/ha) and in the assay with wheat [12] (2 kg/ha) was 9H throughout.
Take `COc1nc(C)nc(NC(=O)NS(=O)(=O)c2ccccc2C(=O)OC(C)Cc2ccccc2)n1` (stereo not drawn) [drawing 524]: the response rating in the assay on morningglory [7] (0.4 kg/ha) amounted to 9G; in the assay with cocklebur [8] (0.4 kg/ha), 9G; in the assay with barnyardgrass (0.4 kg/ha), 9H; in the assay on wild oats [10] (0.4 kg/ha) it was 9H; in the assay on corn [11] (0.4 kg/ha), 9H; with sorghum (0.4 kg/ha), 9H. Further, the response rating in the assay on soybean (0.4 kg/ha) and with wheat [12] (0.4 kg/ha) was 9H each time.
Regarding `COc1cc(C)nc(NC(=O)NS(=O)(=O)c2ccccc2C(=O)NC(C)C)n1` [drawing 530], the response rating in the assay on morningglory [7] (0.4 kg/ha) is listed as 9G; in the assay on cocklebur [8] (0.4 kg/ha), 8G; in the assay on cassia [9] (0.4 kg/ha), 9G; in the assay with crabgrass (0.4 kg/ha), 9H; in the assay on barnyardgrass (0.4 kg/ha), 9H; in the assay on corn [11] (0.4 kg/ha), 9H. The response rating with sorghum (0.4 kg/ha), with soybean (0.4 kg/ha) and in the assay on wheat [12] (0.4 kg/ha) was 9H throughout.
